According to article PMC6235670, “An mTOR Signaling Modulator Suppressed Heterotopic Ossification of Fibrodysplasia Ossificans Progressiva” (Stem Cell Reports, 2018):

Tests used:
mTOR signaling (p-S6) [1] = assay: p-S6 western blotting during chondrogenic induction of FOP-iMSCs with activin A; format: cell-based, human; conditions: 1 µM
Method: Western blotting. SDS- PAGE and blotting with whole-cell lysates were performed by standard procedures.
Protein bands were detected with ECL Prime Western Blotting Detection Reagent (GE Healthcare) and visualized using BIO-RAD Molecular Imager® Chemi-DocTM XRS+ with Image LabTM software (Bio-Rad).
All data (relative intensity) were corrected by β-actin.
Antibodies for western blotting and immunostaining.
N ame Company Cat. No Concentration
Human Activin RIA/ALK-2 Antibody R&D Systems) AF637 1:100
Anti-human Vimentin antibody Abcam ab16700 1:40
Collagen I Antibody Novus NB600- 1:100
Anti-rabbit IgG, HRP-linked Antibody Cell Signaling #7074 1:10000 […]
2nd Goat anti-Rabbit IgG (H+L) Secondary Antibody, Invitrogen A-11008 1:100 antibody Alexa Fluor® 488 conjugate
Goat anti-Rabbit IgG (H+L) Secondary Antibody, Invitrogen A-21428 1:500

BMP type I receptors = system: BMP type I receptors; set-up: method as in Lewis and Prywes, 2013; conditions: ref Lewis and Prywes, 2013; cited from earlier work
[2] = system: BMP-7-induced HO model mice (C57BL/6); assay: BMP-7-induced HO model mice
Excerpt: (§1) MTOR s604 […]tt […]at […]
(§2) For X- ray images, mice were anesthetized with isoflurane (5% for induction, 2-3% for maintenance, Abbvie), immobilized and X-rayed using µFX-1000 (Fujifilm) or DX-50 (Faxitron Bioptics). µCT images were scanned using X-ray CT systems (inspeXio SMX-100CT, Shimadzu) and analyzed with TRI/3D-BON software (Ratoc System Engineering) according to the manufacturer's instructions. Four weeks after injection, the injected sites were harvested, fixed with 4% paraformaldehyde for 24 h, embedded in paraffin, and sectioned and stained […]
(§3) BMP-7-induced HO model mice. BMP -7 (2 µ g/mouse) was injected into the right gastrocnemius muscle of C57BL/6NJcl mice (6-8 weeks, male, CLEA Japan), and compounds were administered once a day, five times a week (intraperitoneal administration). Mice were analyzed 2 weeks after injection. […]

FOP-iMSCs = assay: 2D chondrogenic induction of FOP-iMSCs with activin A (GAG, Alcian blue); format: cell-based, human; conditions: activin A, 7 days
BMP signaling (BRE-Luc) = assay: BRE-Luc reporter assay in FOP-iMSCs; format: cell-based, human; conditions: activin A and compounds for 16 hr
Method: (§4) FOP-iMSCs transiently transfected with BRE-Luc (A) or CAGA-Luc (B) with CMV-Renilla were stimulated with activin A and compounds for 16 hr (A) or 3 hr (B). […] One day after siRNA transfection, chondrogenic induction with activin A was initiated, and after 7 days the cells were harvested. […] FOP-iMSCs cultured with 10% FBS were treated with 100 nM rapamycin (Rapa) or TAK 165 (TAK) for 2 hr, and the cells were harvested. […] 1 μM TAK, 1 μM CP (CP-724714, another selective ERBB2 inhibitor), or 10 nM Rapa were applied in the experiments.

[3] = system: NOD/SCID mice transplanted with FOP-iMSCs
Excerpt: as §1
as §2, with “instructions.” for “instructions. Four weeks after injection, the injected sites were harvested, fixed with 4% paraformaldehyde for 24 h, embedded in paraffin, and sectioned and stained”
Activin-A-induced HO model transplanted with FOP-iMSCs. FOP- (right leg) and resFOP-iMSCs (left leg) (4 x 10^6 cells, respectively) were transplanted into the gastrocnemius muscle of NOD/ShiJic-scid Jcl (NOD/SCID) mice (8 weeks, male, CLEA Japan) with C3H -DoxOn-hINHBA (5 x 10^5 cells), which can continuously expose Activin-A to the transplanted iMSCs in vivo ( Hino et al., 2015) . In the Dox-induced group, 1 mg/mL Dox (Sigma-Aldrich) was administered via drinking water with 10 mg/mL sucrose (Nacalai Tesque) for two weeks after transplantation. Compounds were intraperitoneally administered once a day, five times a week. Eight weeks after transplantation, the transplanted cells were harvested , fixed with 4% paraformaldehyde for 24 h, embedded in paraffin, and sectioned and stained with HE, von Kossa, Safranin O, human specific anti-Vimentin antibody and Collagen I antibody as previously described (Hino et al., 2015; Umeda et al., 2012; […]

ATDC5/FOP-ACVR1 cells = assay: ALP assay (HTS and dose-response) in ATDC5/FOP-ACVR1; format: cell-based, mouse; conditions: Mus musculus, 72 h, read-out: IC50 (ALP assay)
Method: ATDC5/FOP-ACVR1 cells were plated in 96-well white plates (2,000 cells/well/40 μL, Corning) in DMEM/F-12 supplemented with 5% (v/v) FBS. Two hours after incubation at 37°C under 5% CO2, 10 μL of test compounds (final 1 μM) was added, and the assay plates were incubated at 37°C under 5% CO2. After 3 days of incubation, ALP activity was measured using an Amplite Colorimetric Alkaline Phosphatase Assay Kit (AAT Bioquest) according to the manufacturer's protocol.
Generation of ATDC5 stably expressing ACVR1. WT - or FOP-ACVR1 was inserted into doxycycline (Dox)- […]
(KW111/WT-ACVR1 or KW111/FOP-ACVR1). KW111/WT-ACVR1 or KW111/FOP-ACVR1 and PBaseII […]
FuGeneHD® (Promega) according to the manufacturer’s protocol, and the neomycin- resistant population (500 µg/mL) was selected. […]
HTS campaign and follow-up screens. […] After 3 days incubation, Alkaline Phosphatase activity (ALP) or AlamarBlue activity was measured using Amplite™ Colorimetric Alkaline Phosphatase Assay Kit (AAT Bioquest) or alamarBlue® Cell Viability Reagent (Thermo Fisher Scientific) according to the manufacturer’s protocol, respectively. […]
was measured on POWERSCAN4 (DS Pharma Biomedical) or EnVision® Multilabel Reader (PerkinElmer).
Inhibitory effects of the screened compounds are given as percent inhibition, which was calculated using the following equation: (1-([Abs of compound] - [Abs of Min])/([Abs of Max] - [Abs of Min]))× 100, where [Abs of Max] and [Abs of Min] are the mean Abs of DMSO control and 1 µM DMH-1, respectively. The Z’ factor, which is widely used as a measure of the assay quality of each plate, was calculated using the following equation: Z’ factor = 1 - 3 × ([SD of Max] + [SD of Min])/([Abs of Max] - [Abs of Min]) (SI Appendix, Fig.
The S/B (signal-to-background) ratio was calculated using the following equation: ([Abs of Max]/[Abs of Min]) (SI Appendix, Fig. S3B). […]

[4] = system: TGF-β signaling (CAGA-Luc); assay: CAGA-Luc reporter assay in FOP-iMSCs; format: cell-based, human; conditions: activin A and compounds for 3 hr
Method: as §4

mTOR signaling (p-S6) [5] = assay: p-S6 western blotting in FOP-iMSCs cultured with 10% FBS; format: cell-based, human; conditions: 100 nM, 2 hr
Method: time point t = 24 h from t = 0 h, and relative cell migration was expressed as the ratio of the absolute cell migrations between the experimental and control groups by using CL-Quant software (Nikon Corp.).
Quantitative PCR analysis. Total RNA was purified with RNeasy Kit (Qiagen) and treated with DNase -one Kit (Qiagen) to remove genomic DNA. Total RNA (0.3 µg) was reverse transcribed for single-stranded cDNA using random primers and Superscript III reverse transcriptase (Thermo Fisher Scientific) according to the manufacturer’s instructions. Quantitative PCR was performed with Thunderbird SYBR qPCR Mix (TOYOBO) and analyzed with the StepOne real-time PCR system (Applied Biosystems). […]
Microarray experiments. 2D chondrogenic induction was performed in FOP-iMSCs stimulated with or without 100 ng/mL Activin-A, TAK 165, CP-724714 and Lapatinib. […] Raw CEL files were imported into GeneSpring GX 12.6.1 software (Agilent Technologies), and expression values were calculated with the RMA16 algorithm. […]
Protein bands were detected with ECL Prime Western Blotting Detection Reagent (GE Healthcare) and visualized using BIO-RAD Molecular Imager® Chemi-DocTM XRS+ with Image LabTM software (Bio-Rad). […]
GAG value. The GAG content was quantified in pellets with the Blyscan Glycosaminoglycan Assay Kit (Biocolor). The DNA content was quantified using PicoGreen dsDNA Quantitation Kit (Thermo Fisher […]

[6] = system: healthy control iPSC (414C2)-derived iMSCs; assay: Wound healing assay; conditions: 10 nM rapamycin or 1 µM TAK165, 24 h
C57BL/6 mice = assay: Growth plate histology and normal bone µCT in compound-administered BMP-7-injected mice; conditions: 5 mg/kg i.p., 2 weeks
Method: as §1
System Engineering) according to the manufacturer's instructions. […]
as §3
Histological analysis of growth plates chondrocytes. Knee joints were obtained from BMP-7-injected and test compounds-administrated C57BL/6NJcl mice after 2 weeks treatment and fixed, paraffin-embedded, and sectioned and stained with Safranin O. The thickness of the proliferative and hypertrophic zones of the growth plate were measured using ImageJ software on images obtained using a Keyence microscope (Keyence A merica). The proliferative zone was defined as the region with flat chondrocytes stacked in longitudinal columns, and the hypertrophic zone as the region where chondrocytes are enlarged in size and form clusters.
Normal bone µCT. The left legs of mice were obtained from BMP -7-injected and test -compounds administrated C57BL/6NJcl mice after 2 weeks treatment. The region of interest (ROI) included the femur- tibia (entire femur in addition to the part of tibia above tibia/fibular junction). […]
Tests of side effects of direct and indirect mTOR inhibitors. Related

Compound	p-S6 levels from 2 hr after treatment (mTOR signaling (p-S6) [1])	inhibition of BMP type I receptors (BMP type I receptors)	body weight change compared to vehicle group ([2]; i.p. for 2 weeks, n=5)	BMP-7-induced HO (heterotopic bone volume) ([2]; i.p. once daily 5 times a week for 2 weeks)	# of HO (> 20 mm3): number of mice harboring HO ([2]; i.p. once daily 5 times a week for 2 weeks, N = 5)	inhibition of glycosaminoglycan (GAG) production (FOP-iMSCs; 1 μM)	suppression of chondrogenic induction (GAG), dose dependence (FOP-iMSCs)	BRE-Luc (BMP-specific luciferase reporter) (BMP signaling (BRE-Luc))	body weight change compared with vehicle group ([3]; 5 mg/kg i.p.)	hypertrophic chondrocytes and von Kossa- and COL1-positive bone regions ([3]; 5 mg/kg i.p.)	HO derived from FOP-iMSCs (heterotopic bone volume) ([3]; 5 mg/kg i.p. once daily, five times a week, 8 weeks after transplantation)	IC50 (ATDC5/FOP-ACVR1 cells) [nM]	CAGA-Luc (TGF-β-responsive luciferase reporter) [4]	p-S6 levels (direct mTOR inhibition) (mTOR signaling (p-S6) [5])	Relative cell migration (wound healing assay) vs DMSO [6]	Bone Mineral Density (normal bone µCT) vs vehicle (C57BL/6 mice)	Bone volume (normal bone µCT, femur-tibia) vs vehicle (C57BL/6 mice)	Hypertrophic zone thickness of growth plate vs vehicle (C57BL/6 mice)	Proliferative zone thickness of growth plate vs vehicle (C57BL/6 mice)
CN1CCN(CCOc2cc(OC3CCOCC3)c3c(Nc4c(Cl)ccc5c4OCO5)ncnc3c2)CC1 [AZD0530, saracatinib]	significantly inhibited	inhibited	No significant differences	suppressed	1/5	potent inhibition	dose-dependent	inhibited	No significant differences	fewer	significantly suppressed	4	inhibited						
CO[C@H]1C[C@@H]2CC[C@@H](C)[C@@](O)(O2)C(=O)C(=O)N2CCCC[C@H]2C(=O)O[C@H]([C@H](C)C[C@@H]2CC[C@@H](O)[C@H](OC)C2)CC(=O)[C@H](C)/C=C(\C)[C@@H](O)[C@@H](OC)C(=O)[C@H](C)C[C@H](C)/C=C/C=C/C=C/1C [rapamycin]														decreased	n.s.	n.s.	n.s.	n.s.	n.s.
